{"source": "ChEMBL document CHEMBL4402583", "about": "“Rational Substitution of ε-Lysine for α-Lysine Enhances the Cell and Membrane Selectivity of Pore-Forming Melittin” (J Med Chem, 2020)", "key": {"[1]": {"assay": "Cytotoxicity against HDF cells assessed as minimum cytotoxic concentration incubated for 24 hrs by MTS assay", "type": "cell-based", "settings": "human, HDF cells (NHDF, human dermal fibroblasts)"}, "[2]": {"tested_on": "Pseudomonas aeruginosa", "assay": "Antibacterial activity against Pseudomonas aeruginosa assessed as reduction in bacterial growth incubated for 24 hrs by broth microdilution method", "type": "functional"}, "[3]": {"tested_on": "Staphylococcus aureus", "assay": "Antibacterial activity against Staphylococcus aureus assessed as reduction in bacterial growth incubated for 24 hrs by broth microdilution method", "type": "functional"}, "[4]": {"tested_on": "Candida albicans", "assay": "Antifungal activity against Candida albicans assessed as reduction in fungal growth incubated for 24 hrs by broth microdilution method", "type": "functional"}, "[5]": {"tested_on": "Lipid bilayer", "assay": "Induction of pore formation in negatively charged DOPE/DOPG large unilamellar vesicles assessed as calcein release at 0.39 to 50 uM measured for 60 mins by fluorescence based assay"}, "[6]": {"tested_on": "Lipid bilayer", "assay": "Induction of pore formation in zwitterionic DOPC/cholesterol large unilamellar vesicles assessed as calcein release at 0.39 to 50 uM measured for 60 mins by fluorescence based assay"}, "[7]": {"tested_on": "NHDF", "assay": "Cytotoxicity against HDF cells assessed as reduction in metabolic activity at 32 ug/ml incubated for 24 hrs by MTS assay", "type": "ADME, cell-based", "settings": "human"}, "[8]": {"tested_on": "NHDF", "assay": "Cytotoxicity against HDF cells at 31.25 ug/ml incubated for 24 hrs by Alexa Fluor […] phalloidin-FITC/Hoescht dye staining based fluorescence microscopic analysis", "type": "cell-based", "settings": "human"}, "[9]": {"tested_on": "Lipid bilayer", "assay": "Induction of pore formation in negatively charged DOPE/DOPG large unilamellar vesicles assessed as ratio of peptide to lipid molar ratio that induces 50% calcein leakage measured for 60 mins by calcein dequenching based fluorescence based assay"}, "[10]": {"tested_on": "Lipid bilayer", "assay": "Binding affinity to zwitterionic DOPC/cholesterol large unilamellar vesicles assessed as transformation of peptide secondary structure to alpha-helical conformation by CD spectropolarimetry"}, "[11]": {"assay": "Cytotoxicity against HDF cells assessed as minimum cytotoxic concentration incubated for 24 hrs by Alexa Fluor […] phalloidin-FITC/Hoescht dye staining based fluorescence microscopic analysis", "type": "cell-based", "settings": "human, HDF cells (NHDF, human dermal fibroblasts)"}, "[12]": {"tested_on": "Staphylococcus aureus", "assay": "In vivo antibacterial activity against Staphylococcus aureus ATCC 29213 infected in C57BL/6 mouse assessed as reduction in bacterial burden by measuring log10 CFU/cornea at 0.3% administered topically as two times on day 1, four times on day 2 and two times on day 3 measured at 48 hrs post-final dose by 10 fold serial dilution method (reference value: 6.5 +/- 0.7 log10CFU)", "type": "functional"}, "[13]": {"tested_on": "Staphylococcus aureus", "assay": "Antibacterial activity against methicillin-sensitive Staphylococcus aureus assessed as reduction in bacterial growth incubated for 24 hrs by broth microdilution method", "type": "functional"}, "[14]": {"tested_on": "Staphylococcus aureus", "assay": "Antibacterial activity against methicillin-resistance Staphylococcus aureus assessed as reduction in bacterial growth incubated for 24 hrs by broth microdilution method", "type": "functional"}, "[15]": {"tested_on": "Enterococcus", "assay": "Antibacterial activity against vancomycin-resistant Enterococcus assessed as reduction in bacterial growth incubated for 24 hrs by broth microdilution method", "type": "functional"}, "[16]": {"tested_on": "Acinetobacter baumannii", "assay": "Antibacterial activity against multidrug-resistant Acinetobacter baumannii assessed as reduction in bacterial growth incubated for 24 hrs by broth microdilution method", "type": "functional"}, "[17]": {"tested_on": "Enterobacteriaceae", "assay": "Antibacterial activity against Carbapenem-Resistant Enterobacteriaceae assessed as reduction in bacterial growth incubated for 24 hrs by broth microdilution method", "type": "functional"}, "[18]": {"tested_on": "Enterococcus faecalis", "assay": "Antibacterial activity against vancomycin-resistant Enterococcus faecalis ATCC 29212 assessed as log10 reduction in bacterial viability at 2 to 4 times MIC incubated for 30 mins in MHB medium followed by reincubation on MH agar plate for 24 to 48 hrs by time kill kinetics analysis", "type": "functional"}, "[19]": {"tested_on": "Enterococcus faecalis", "assay": "Antibacterial activity against vancomycin-resistant Enterococcus faecalis 1010 assessed as log10 reduction in bacterial viability at 2 to 4 times MIC incubated for 30 mins in MHB medium followed by reincubation on MH agar plate for 24 to 48 hrs by time kill kinetics analysis", "type": "functional"}, "[20]": {"tested_on": "Enterococcus faecalis", "assay": "Antibacterial activity against vancomycin-resistant Enterococcus faecalis 1002 assessed as log10 reduction in bacterial viability at 2 to 4 times MIC incubated for 30 mins in MHB medium followed by reincubation on MH agar plate for 24 to 48 hrs by time kill kinetics analysis", "type": "functional"}, "[21]": {"tested_on": "Acinetobacter baumannii", "assay": "Antibacterial activity against Acinetobacter baumannii 1001 assessed as reduction in bacterial viability at 2 or 4 times MIC incubated up to 24 hrs in MHB medium followed by reincubation on MH agar plate for 24 to 48 hrs by time kill kinetics assay", "type": "functional, organism-based"}, "[22]": {"tested_on": "Escherichia coli", "assay": "Antibacterial activity against Escherichia coli 1004 assessed as reduction in bacterial viability at 2 or 4 times MIC incubated up to 24 hrs in MHB medium followed by reincubation on MH agar plate for 24 to 48 hrs by time kill kinetics assay", "type": "functional, organism-based"}, "[23]": {"tested_on": "Klebsiella pneumoniae", "assay": "Antibacterial activity against Klebsiella pneumoniae 1008 assessed as reduction in bacterial viability at 2 or 4 times MIC incubated up to 24 hrs in MHB medium followed by reincubation on MH agar plate for 24 to 48 hrs by time kill kinetics assay", "type": "functional, organism-based"}, "[24]": {"tested_on": "Enterococcus faecalis", "assay": "Induction of pore formation in intact vancomycin-resistant Enterococcus faecalis ATCC 29212 cell membrane assessed as SG uptake at 2 times MIC by SG dye based fluorescence based assay", "type": "organism-based"}, "[25]": {"tested_on": "Enterococcus faecalis", "assay": "Induction of pore formation in intact vancomycin-resistant Enterococcus faecalis 1002 cell membrane assessed as SG uptake at 2 times MIC by SG dye based fluorescence based assay", "type": "organism-based"}, "[26]": {"tested_on": "Acinetobacter baumannii", "assay": "Induction of pore formation in intact Acinetobacter baumannii 1001 cell membrane assessed as SG uptake at 2 times MIC by SG dye based fluorescence based assay", "type": "organism-based"}, "[27]": {"tested_on": "Escherichia coli", "assay": "Induction of pore formation in intact Escherichia coli 1004 cell membrane assessed as SG uptake at 2 times MIC by SG dye based fluorescence based assay", "type": "organism-based"}, "[28]": {"assay": "Stability of the compound in rabbit tear fluid measured after 2 hrs by UPLC-MS analysis", "type": "ADME, Oryctolagus cuniculus"}, "[29]": {"assay": "Stability of the compound in rabbit tear fluids assessed as parent compound remaining measured after 4 hrs by UPLC-MS analysis", "type": "ADME, Oryctolagus cuniculus", "settings": "tear fluid, read-out: Stability"}, "[30]": {"tested_on": "NHDF", "assay": "Cytotoxicity against HDF cells assessed as reduction in metabolic activity at 16 ug/ml incubated for 24 hrs by MTS assay", "type": "ADME, cell-based", "settings": "human"}}, "note": "Activity calls are given as the source filed them. The calls are words filed in the database; no cut-off is given here.", "data": [{"compound": "CC[C@H](C)[C@H](NC(=O)CN)C(=O)NCC(=O)N[C@@H](C)C(=O)N[C@H](C(=O)N[C@@H](CC(C)C)C(=O)N[C@@H](CCCCN)C(=O)N[C@H](C(=O)N[C@@H](CC(C)C)C(=O)N[C@H](C(=O)N[C@H](C(=O)NCC(=O)N[C@@H](CC(C)C)C(=O)N1CCC[C@H]1C(=O)N[C@@H](C)C(=O)N[C@@H](CC(C)C)C(=O)N[C@H](C(=O)N[C@@H](CO)C(=O)N[C@@H](Cc1c[nH]c2ccccc12)C(=O)N[C@H](C(=O)NCCC[C@@H](CN)C(=O)N[C@@H](CCCNC(=N)N)C(=O)N[C@@H](CCCCN)C(=O)N[C@@H](CCCNC(=N)N)C(=O)N[C@@H](CCC(N)=O)C(=O)N[C@@H](CCC(N)=O)C(N)=O)[C@@H](C)CC)[C@@H](C)CC)[C@@H](C)O)[C@@H](C)O)C(C)C)C(C)C", "values": [{"measurement": "MCC at 24 h", "setting": "[1]", "value": "> 16", "unit": "µg/mL"}, {"measurement": "MIC", "setting": "[2]", "value": "4 to 16", "unit": "µg/mL"}, {"measurement": "MIC", "setting": "[3]", "value": "4 to 8", "unit": "µg/mL"}, {"measurement": "MIC", "setting": "[4]", "value": "4 to 8", "unit": "µg/mL"}, {"measurement": "Activity", "setting": "[5]", "value": "Active"}, {"measurement": "Activity", "setting": "[6]", "value": "Active"}, {"measurement": "Activity", "setting": "[7]", "value": "Toxic"}, {"measurement": "Activity", "setting": "[8]", "value": "Toxic"}, {"measurement": "Ratio", "setting": "[9]", "value": 0.24}, {"measurement": "Activity", "setting": "[10]", "value": "inactive"}, {"measurement": "MCC at 24 h", "setting": "[11]", "value": "> 16", "unit": "µg/mL"}]}, {"compound": "COc1c(N2C[C@@H]3CCCN[C@@H]3C2)c(F)cc2c(=O)c(C(=O)O)cn(C3CC3)c12", "note": "[MOXIFLOXACIN]", "values": [{"measurement": "Activity", "setting": "[12]", "value": 3.7, "unit": "log10CFU"}]}, {"compound": "CC[C@H](C)[C@H](NC(=O)CN)C(=O)NCC(=O)N[C@@H](C)C(=O)N[C@H](C(=O)N[C@@H](CC(C)C)C(=O)N[C@@H](CCCCN)C(=O)N[C@H](C(=O)N[C@@H](CC(C)C)C(=O)N[C@H](C(=O)N[C@H](C(=O)NCC(=O)N[C@@H](CC(C)C)C(=O)N1CCC[C@H]1C(=O)N[C@@H](C)C(=O)N[C@@H](CC(C)C)C(=O)N[C@H](C(=O)N[C@@H](CO)C(=O)N[C@@H](Cc1c[nH]c2ccccc12)C(=O)N[C@H](C(=O)N[C@@H](CCCCN)C(=O)N[C@@H](CCCNC(=N)N)C(=O)N[C@@H](CCCCN)C(=O)N[C@@H](CCCNC(=N)N)C(=O)N[C@@H](CCC(N)=O)C(=O)N[C@@H](CCC(N)=O)C(N)=O)[C@@H](C)CC)[C@@H](C)CC)[C@@H](C)O)[C@@H](C)O)C(C)C)C(C)C", "note": "[MELITTIN]", "values": [{"measurement": "MCC at 24 h", "setting": "[1]", "value": "> 8", "unit": "µg/mL"}, {"measurement": "MIC50", "setting": "[2]", "value": 16, "unit": "µg/mL"}, {"measurement": "MIC", "setting": "[4]", "value": "4 to 8", "unit": "µg/mL"}, {"measurement": "MIC50", "setting": "[4]", "value": 4, "unit": "µg/mL"}, {"measurement": "Activity", "setting": "[5]", "value": "Active"}, {"measurement": "Activity", "setting": "[6]", "value": "Active"}, {"measurement": "MIC50", "setting": "[13]", "value": 4, "unit": "µg/mL"}, {"measurement": "MIC50", "setting": "[14]", "value": 4, "unit": "µg/mL"}, {"measurement": "MIC", "setting": "[15]", "value": "0.5 to 8", "unit": "µg/mL"}, {"measurement": "MIC50", "setting": "[15]", "value": 4, "unit": "µg/mL"}, {"measurement": "MIC", "setting": "[16]", "value": "2 to 4", "unit": "µg/mL"}, {"measurement": "MIC50", "setting": "[16]", "value": 4, "unit": "µg/mL"}, {"measurement": "MIC", "setting": "[17]", "value": "8 to 32", "unit": "µg/mL"}, {"measurement": "MIC50", "setting": "[17]", "value": 8, "unit": "µg/mL"}, {"measurement": "log(activity)", "setting": "[18]", "value": ">5"}, {"measurement": "log(activity)", "setting": "[19]", "value": ">5"}, {"measurement": "log(activity)", "setting": "[20]", "value": ">5"}, {"measurement": "Activity", "setting": "[21]", "value": "Active"}, {"measurement": "Activity", "setting": "[22]", "value": "Active"}, {"measurement": "Activity", "setting": "[23]", "value": "Active"}, {"measurement": "Activity", "setting": "[24]", "value": "Active"}, {"measurement": "Activity", "setting": "[25]", "value": "Active"}, {"measurement": "Activity", "setting": "[26]", "value": "Active"}, {"measurement": "Activity", "setting": "[27]", "value": "Active"}, {"measurement": "Stability", "setting": "[28]", "value": "Stable"}, {"measurement": "remaining at 4 h", "setting": "[29]", "value": 85.3, "unit": "%"}, {"measurement": "Activity", "setting": "[30]", "value": "Toxic"}, {"measurement": "Ratio", "setting": "[9]", "value": 0.04}, {"measurement": "Activity", "setting": "[10]", "value": "Active"}, {"measurement": "MCC at 24 h", "setting": "[11]", "value": "> 8", "unit": "µg/mL"}]}]}
